Several values for one entry are separate records, joined by “and”; a condition that tells them apart may be missing. Identical values can stand only once. Square brackets hold non-standard residues; d marks the D form. Peptide text beside a SMILES is read from it. pY = N[C@@H](Cc1ccc(OP(=O)(O)O)cc1)C(=O)O
Experiments:
DLAR D1 = target: T1, DLAR D1 (Drosophila melanogaster, UniProt P16621); assay: Surface Plasmon Resonance peptide binding, DLAR D1; conditions: column first binding site, single-site model
T1 construct: DLAR 1448-1746; His tag (pET-15b or pET-22b); made in house; host or cells: E. coli BL21(DE3)
T1 sequence (P16621 1448-1746): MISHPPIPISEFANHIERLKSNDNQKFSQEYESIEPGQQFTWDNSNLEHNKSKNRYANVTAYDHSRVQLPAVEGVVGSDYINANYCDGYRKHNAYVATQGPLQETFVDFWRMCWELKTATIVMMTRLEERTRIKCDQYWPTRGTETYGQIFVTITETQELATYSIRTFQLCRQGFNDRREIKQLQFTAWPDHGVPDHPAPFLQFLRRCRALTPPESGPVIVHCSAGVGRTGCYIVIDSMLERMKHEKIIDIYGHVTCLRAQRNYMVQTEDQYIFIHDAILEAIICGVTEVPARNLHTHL
Protocol: The binding of phosphotyrosine peptides to the PTP domains was studied by Surface Plasmon Resonance on a Biacore-2000 instrument (BIAcore, AB). All experiments were conducted at 25°C. DLAR PTP domains were immobilized onto carboxylated dextran CM5 chips (BIAcore AB) using the standard amine coupling procedure as recommended by the manufacturer. Binding and kinetic assays were performed in 10 mM HEPES, pH 8.0, 150 mM NaCl, 10 mM DTT and 3 mM EDTA at a flow rate of 5 µL/min. The peptides were used at concentrations ranging from 50–700 µM. Dissociation was initiated by replacing the analyte with buffer. The association and dissociation curves were monitored for 600 sec. Sensograms were analyzed with BIA-evaluation software version 2 (BIAcore AB). Sensograms for DLAR D1D2, DLAR D1HSSD2 and DLAR D1D2HSS were fitted to two-site binding equations. DLAR D1 and DLAR D2 sensograms were fitted using a single-site binding model.

[1] = system: PTP99A D1 active site cysteine to serine mutant; assay: Phosphatase assay using pNPP, PTP99A D1 active site Cys to Ser mutant; format: biochemical, Drosophila melanogaster; conditions: active site cysteine to serine in D1
Description: Cosmids containing the genes encoding RPTPs DLAR and PTP99A were a kind gift from Prof. Kai Zinn (Caltech). The PTP domains of PTP99A and DLAR were PCR amplified and ligated between the NheI and XhoI restriction sites of the bacterial expression vectors pET-15b and pET-22b. The active site mutants (with the nucleophilic cysteines in the PTP domains of DLAR and PTP99A mutated to serines) were obtained by using a single primer approach. An XbaI site was incorporated in the primers to aid screening of mutants. All clones were confirmed by sequencing (Macrogen Inc.). The details of the expression constructs are compiled in Table S1 and Figure 1a.
Phosphatase activity of the recombinant PTP domains was determined by using para-Nitrophenylphosphate (pNPP), a small molecule generic substrate, as well as phosphotyrosine containing peptides. The pNPP assay was performed as reported previously, with a modification in the buffer composition (25 mM Citrate, Glycine and HEPES (CGH), pH 6.5, 100 mM NaCl and 2 mM DTT). Phosphatase activity with the phosphotyrosine peptides was ascertained by the malachite green reaction as described for PTPs previously. […] The reaction was stopped by the addition of the Biomol Green reagent (Enzo Life Sciences) and the colour developed after 20 min was quantified at 650 nm. […]

PTP99A D1D2 = target: T2, PTP99A D1D2 (Drosophila melanogaster, UniProt P35832); assay: Phosphatase assay using pNPP, PTP99A D1D2; format: biochemical; design: PTP99A 450-1050; His tag (pET-15b or pET-22b); made in house; host or cells: E. coli BL21(DE3); conditions: CGH buffer pH 6.5, 100 mM NaCl, 2 mM DTT
T2 sequence (P35832 450-1050): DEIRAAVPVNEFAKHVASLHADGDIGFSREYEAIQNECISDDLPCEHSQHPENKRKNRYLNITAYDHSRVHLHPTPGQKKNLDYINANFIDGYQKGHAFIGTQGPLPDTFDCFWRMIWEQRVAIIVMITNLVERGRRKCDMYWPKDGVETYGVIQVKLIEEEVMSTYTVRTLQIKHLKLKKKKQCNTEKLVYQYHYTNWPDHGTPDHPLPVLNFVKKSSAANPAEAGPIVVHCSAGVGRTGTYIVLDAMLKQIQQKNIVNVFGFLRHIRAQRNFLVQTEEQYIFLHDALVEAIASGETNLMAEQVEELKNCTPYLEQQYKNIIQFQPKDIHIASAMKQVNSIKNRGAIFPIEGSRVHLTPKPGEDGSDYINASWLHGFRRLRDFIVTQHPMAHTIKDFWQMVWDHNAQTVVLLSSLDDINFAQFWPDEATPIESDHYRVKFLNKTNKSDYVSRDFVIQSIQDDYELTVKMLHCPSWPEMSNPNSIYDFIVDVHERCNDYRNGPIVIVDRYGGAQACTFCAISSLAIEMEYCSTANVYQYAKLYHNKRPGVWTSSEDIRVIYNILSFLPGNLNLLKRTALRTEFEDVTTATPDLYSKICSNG
Protocol: Phosphatase activity of the recombinant PTP domains was determined by using para-Nitrophenylphosphate (pNPP), a small molecule generic substrate, as well as phosphotyrosine containing peptides. The pNPP assay was performed as reported previously, with a modification in the buffer composition (25 mM Citrate, Glycine and HEPES (CGH), pH 6.5, 100 mM NaCl and 2 mM DTT). Phosphatase activity with the phosphotyrosine peptides was ascertained by the malachite green reaction as described for PTPs previously. Briefly, the reaction mixture comprised of 0.01 µM protein incubated with increasing concentrations of different peptides in 25 mM citrate buffer pH 6.0, 100 mM NaCl and 2 mM DTT for 15 min at 25°C. The reaction was stopped by the addition of the Biomol Green reagent (Enzo Life Sciences) and the colour developed after 20 min was quantified at 650 nm. For all the assays, kinetic constants for the steady state catalysis were obtained by fitting the reaction curves to the Michaelis-Menten equation using the nonlinear regression module of Sigma plot software (Systat Software, Inc.).
The tandem PTP domains of PTP99A (PTP99A D1D2) and DLAR (DLAR D1D2) , the individual PTP domains (D1 and D2) as well as the active site mutants were expressed in E. coli and were purified using the protocols described earlier (Figure 1a, Figure S1a, b & c). The biochemical characterization and catalytic activity measurements were performed using pNPP as a substrate. […] Thus the D2 domain appears to have a regulatory role in both RPTPs- decreasing the catalytic activity in the case of DLAR while increasing the catalytic activity in the case of PTP99A (Figure 1b).

SMILES | kon (DLAR D1; SPR Biacore-2000, 25°C, 10 mM HEPES pH 8.0, 150 mM NaCl, 10 mM DTT, 3 mM EDTA, peptides 50–700 µM, read-out: ka) [M⁻¹ s⁻¹] | Kd (DLAR D1; SPR, 25°C, pH 8.0) [µM] | PTPase activity [1] | Kcat (PTP99A D1D2) [s⁻¹] | Kcat/Km (PTP99A D1D2) | Vmax (PTP99A D1D2; Michaelis-Menten fit)
CC(C)C[C@H](NC(=O)[C@H](C)NC(=O)CNC(=O)[C@H](Cc1ccc(OP(=O)(O)O)cc1)NC(=O)[C@H](CC(=O)O)NC(=O)[C@@H]1CCCN1C(=O)[C@H](CCC(=O)O)NC(=O)[C@H](C)NC(=O)[C@@H](N)[C@@H](C)O)C(=O)N[C@@H](Cc1ccc(O)cc1)C(=O)N[C@@H](CCC(=O)O)C(=O)O [Cuticle peptide] (H-TAEPD[pY]GALYE-OH) | 18.6 ± 1.46 | 94.6 ± 0.33 |  |  |  | 
O=[N+]([O-])c1ccc(OP(=O)(O)O)cc1 [pNPP, para-Nitrophenylphosphate] |  |  | inactive enzyme | 33.80 ± 0.59 | 14.92 ± 0.98 x 10^3 sec^-1M^-1 | 24.89 µmol/min/mg and 24.89 ± 0.52 µmol/min/mg
